Active and inactive are the calls of the source. The calls are words filed in the database; no cut-off is given here.

What all share (type): functional, organism-based
The subject of assay [1] is Candida albicans. The experiment in a line: Anticandidal activity against Candida albicans H317 assessed as inhibition of transformation of organism from cellular yeast to filamentous form at 125 uM preincubated for 2 hrs before addition of fetal bovine serum measured after 22 hrs by phase contrast microscopy.
Assay [2] relates to Candida albicans. The assay can be described thus: Growth inhibition of cellular yeast form of Candida albicans H317 at 5 mM after 2 hrs.
Assay [3] has as its system Candida albicans. The assay can be described thus: Anticandidal activity against Candida albicans H317 assessed as inhibition of transformation of organism from cellular yeast to filamentous form at 250 uM preincubated for 2 hrs before addition of fetal bovine serum measured after 22 hrs by phase contrast microscopy.

Consider `C=C(C)[C@@H]1CC=C(C=O)CC1`, for which the result in the assay with Candida albicans [1] and with Candida albicans [2] was Active.

With `C=C(C)[C@H]1CC=C(C)C(=O)C1`, the result in the assay with Candida albicans [2] and with Candida albicans [3] was Active.

Source of the values: ChEMBL document CHEMBL1150106, “Carvone and perillaldehyde interfere with the serum-induced formation of filamentous structures in Candida albicans at substantially lower concentrations than those causing significant inhibition of growth” (J Nat Prod, 2002).
